Test results reported in patent publication US20200216439A1, “HETERO-1,5,6,7-TETRAHYDRO-4H-INDOL-4-ONES” (BAYER PHARMA AKTIENGESELLSCHAFT, priority 2015, published 2020).

Target: T1, catalytic domain of human Bub1 (amino acids 704-1085) (Homo sapiens, UniProt O43683)
T1 construct: catalytic domain of human Bub1 (amino acids 704-1085); His6 (N); made in house; host or cells: Hi5 insect cells
Assay: Bub1 kinase assay (TR-FRET)
Assay type: biochemical
Settings: not given
From the text: Bub1-inhibitory activities of compounds described in the present invention were quantified using a time-resolved fluorescence energy transfer (TR-FRET) kinase assay which measures phosphorylation of the synthetic peptide Biotin-Ahx-VLLPKKSFAEPG (C-terminus in amide form), purchased from e.g. Biosyntan (Berlin, Germany) by the (recombinant) catalytic domain of human Bub1 (amino acids 704-1085), expressed in Hi5 insect cells with an N-terminal His6-tag and purified by affinity—(Ni-NTA) and size exclusion chromatography.
In a typical assay 11 different concentrations of each compound (0.1 nM, 0.33 nM, 1.1 nM, 3.8 nM, 13 nM, 44 nM, 0.15 μM, 0.51 μM, 1.7 μM, 5.9 μM and 20 μM) were tested in duplicate within the same microtiter plate. To this end, 100-fold concentrated compound solutions (in DMSO) were previously prepared by serial dilution (1:3.4) of 2 mM stocks in a clear low volume 384-well source microtiter plate (Greiner Bio-One, Frickenhausen, Germany), from which 50 nl of compounds were transferred into a black low volume test microtiter plate from the same supplier. Subsequently, 2 μL of Bub1 (the final concentration of Bub1 was adjusted depending on the activity of the enzyme lot in order to be within the linear dynamic range of the assay: typically ˜200 ng/mL were used) in aqueous assay buffer [50 mM Tris/HCl pH 7.5, 10 mM magnesium chloride (MgCl2), 200 mM potassium chloride (KCl), 1.0 mM dithiothreitol (DTT), 0.1 mM sodium ortho-vanadate, 1% (v/v) glycerol, 0.01% (w/v) bovine serum albumine (BSA), 0.005% (v/v) Trition X-100 (Sigma), 1× Complete EDTA-free protease inhibitor mixture (Roche)] were added to the compounds in the test plate and the mixture was incubated for 15 min at 22° C. to allow pre-equilibration of the putative enzyme-inhibitor complexes before the start of the kinase reaction, which was initiated by the addition of 3 μL 1.67-fold concentrated solution (in assay buffer) of adenosine-tri-phosphate (ATP, 10 μM final concentration) and peptide substrate (1 μM final concentration). The resulting mixture (5 μL final volume) was incubated at 22° C. during 60 min., and the reaction was stopped by the addition of 5 μL of an aqueous EDTA-solution (50 mM EDTA, in 100 mM HEPES pH 7.5 and 0.2% (w/v) bovine serum albumin) which also contained the TR-FRET detection reagents (0.2 μM streptavidin-XL665 [Cisbio Bioassays, Codolet, France] and 1 nM anti-phospho-Serine antibody [Merck Millipore, cat. #35-002] and 0.4 nM LANCE EU-W1024 labeled anti-mouse IgG antibody [Perkin-Elmer, product no. AD0077, alternatively a Terbium-cryptate-labeled anti-mouse IgG antibody from Cisbio Bioassays can be used]). The stopped reaction mixture was further incubated 1 h at 22° C. in order to allow the formation of complexes between peptides and detection reagents. Subsequently, the amount of product was evaluated by measurement of the resonance energy transfer from the Eu-chelate-antibody complex recognizing the Phosphoserine residue to the streptavidin-XL665 bound to the biotin moiety of the peptide. To this end, the fluorescence emissions at 620 nm and 665 nm after excitation at 330-350 nm were measured in a TR-FRET plate reader, e.g. a Rubystar or Pherastar (both from BMG Labtechnologies, Offenburg, Germany) or a Viewlux (Perkin-Elmer) and the ratio of the emissions (665 nm/[…]) was taken as indicator for the amount of phosphorylated substrate. The data were normalised using two sets of control wells for high—(=enzyme reaction without inhibitor=0%=Minimum inhibition) and low—(=all assay components without enzyme=100%=Maximum inhibition) Bub1 activity. IC50 values were calculated by fitting the normalized inhibition data to a 4-parameter logistic equation (Minimum, Maximum, IC50, Hill; Y=Max+(Min−Max)/(1+(X/IC50)Hill)).

T1 sequence (O43683 704-1085): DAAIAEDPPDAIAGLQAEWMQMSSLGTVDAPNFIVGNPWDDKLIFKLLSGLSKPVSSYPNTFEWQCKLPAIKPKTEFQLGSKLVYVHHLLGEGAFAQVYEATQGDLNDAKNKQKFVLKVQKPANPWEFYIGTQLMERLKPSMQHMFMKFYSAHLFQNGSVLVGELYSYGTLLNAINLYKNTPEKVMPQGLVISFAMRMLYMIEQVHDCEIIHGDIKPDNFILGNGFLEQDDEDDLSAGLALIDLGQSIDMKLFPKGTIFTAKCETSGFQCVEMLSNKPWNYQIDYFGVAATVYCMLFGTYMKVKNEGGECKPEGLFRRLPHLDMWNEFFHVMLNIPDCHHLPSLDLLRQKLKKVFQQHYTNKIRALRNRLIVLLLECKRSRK

COc1cc(C(=O)Nc2cc(-c3[nH]c4c(c3Nc3ccccc3)C(=O)CN(C(=O)N3CCOCC3)C4)ccn2)ccc1F [Example 260, 4-Fluoro-3-methoxy-N-4-[6-(morpholin-4-ylcarbonyl)-4-oxo-3(phenylamino)-4,5,6,7-tetrahydro-1H-pyrrolo[2,3-c]pyridin-2-yl]pyridin-2-ylbenzamide] gave an IC50 of 0.008 µM.

Same assay, conditions: TR-FRET; ATP 10 μM, peptide substrate 1 μM; 60 min at 22° C.; average or median if tested more than once; read-out: Inhibition of Bub1 kinase IC50

Point of comparison: O=C(Nc1cc(-c2[nH]c3c(c2Nc2ccccc2)C(=O)COC3)ccn1)c1cscn1 [Example 49, N-{4-[4-Oxo-3-(phenylamino)-1,4,5,7-tetrahydropyrano[3,4-b]pyrrol-2-yl]pyridin-2-yl}-1,3-thiazole-4-carboxamide], IC50 0.051 µM. Against it:
- CC(C)(C)OC(=O)N1CC(=O)c2c([nH]c(-c3ccncc3F)c2Nc2ccccc2)C1 [Example 11, tert-Butyl 2-(3-fluoropyridin-4-yl)-4-oxo-3-(phenylamino)-1,4,5,7-tetrahydro-6H-pyrrolo[2,3-c]pyridine-6-carboxylate] — 6.4-fold lower, 0.008 µM
- CC(=O)Nc1cc(-c2[nH]c3c(c2Nc2ccccc2)C(=O)CNC3)ccn1 [Example 24, N-{4-[4-Oxo-3-(phenylamino)-4,5,6,7-tetrahydro-1H-pyrrolo[2,3-c]pyridin-2-yl]pyridin-2-yl}acetamide] — 3-fold higher, 0.154 µM
- CNC(=O)N1CC(=O)c2c([nH]c(-c3ccnc(NC(C)=O)c3)c2Nc2ccc(F)cc2)C1 [Example 313, 2-[2-(Acetylamino)pyridin-4-yl]-3-[(4-fluorophenyl)amino]-N-methyl-4-oxo-1,4,5,7-tetrahydro-6H-pyrrolo[2,3-c]pyridine-6-carboxamide] — 3-fold lower, 0.017 µM
- COc1cnccc1-c1[nH]c2c(c1Nc1ccccc1)C(=O)CN(C(=O)C(C)(C)C)C2 [Example 106, 6-(2,2-Dimethylpropanoyl)-2(3-methoxypyridin-4-yl)-3-(phenylamino)-1,5,6,7-tetrahydro-4H-pyrrolo[2,3-c]pyridin-4-one] — 8.5-fold lower, 0.006 µM
- CNC(=O)N1CC(=O)c2c([nH]c(-c3ccncc3OCC3CC3)c2Nc2ccccc2)C1 [Example 251, 2-[3-(Cyclopropylmethoxy)pyridin-4-yl]-N-methyl-4-oxo-3-(phenylamino)-1,4,5,7-tetrahydro-6H-pyrrolo[2,3-c]pyridine-6-carboxamide] — 4.2-fold lower, 0.012 µM
- CC(=O)Nc1cc(-c2[nH]c3c(c2Nc2ccc(F)cc2)C(=O)CNC3)ccn1 [Example 302, N-(4-{3-[(4-Fluorophenyl)amino]-4-oxo-4,5,6,7-tetrahydro-1H-pyrrolo[2,3-c]pyridin-2-yl}pyridin-2-yl)acetamide] — 5.8-fold higher, 0.297 µM
- O=C1CN(C(=O)N2CCOCC2)Cc2[nH]c(-c3ccncc3)c(Nc3ccccc3)c21 [Example 94, 6-(Morpholin-4-ylcarbonyl)-3-(phenylamino)-2-(pyridin-4-yl)-1,5,6,7-tetrahydro-4H-pyrrolo[2,3-c]pyridin-4-one] — 17-fold lower, 0.003 µM
- CN(C)C(=O)N1CC(=O)c2c([nH]c(-c3ccnc(NC(=O)[C@@H]4C[C@@H]4F)c3)c2Nc2ccccc2)C1 [Example 207, 2-[2-([(1S,2S)-2-Fluorocyclopropyl]carbonylamino)pyridin-4-yl]-N,N-dimethyl-4-oxo-3-(phenylamino)-1,4,5,7-tetrahydro-6H-pyrrolo[2,3-c]pyridine-6-carboxamide] — 17-fold lower, 0.003 µM
- CNS(=O)(=O)N1CC(=O)c2c([nH]c(-c3ccnc(NC(C)=O)c3)c2Nc2ccc(C)cc2)C1 [Example 322] — within 1.5-fold, 0.041 µM
- CN(C)CC(=O)Nc1cc(-c2[nH]c3c(c2Nc2ccccc2)C(=O)COC3)ccn1 [Example 153, N-[4-(3-Anilino-4-oxo-1,4,5,7-tetrahydropyrano[3,4-b]pyrrol-2-yl)pyridin-2-yl]-N^2,N^2-dimethylglycinamide] — 10-fold higher, 0.51 µM
- CC(=O)Nc1cc(-c2[nH]c3c(c2Nc2ccc(F)cc2)C(=O)CN(C(C)=O)C3)ccn1 [Example 312, N-(4-(6-Acetyl-3-[(4-fluorophenyl)amino]-4-oxo-4,5,6,7-tetrahydro-1H-pyrrolo[2,3-c]pyridin-2-yl)pyridin-2-yl)acetamide] — 3.2-fold lower, 0.016 µM
- CN(C)C(=O)N1CC(=O)c2c([nH]c(-c3ccncc3)c2Nc2ccccc2)C1 [Example 82] — 13-fold lower, 0.004 µM
- O=C(Nc1cc(-c2[nH]c3c(c2Nc2ccccc2)C(=O)CNC3)ccn1)c1cncs1 [Example 135] — the same, 0.051 µM
- COC(=O)N1CC(=O)c2c([nH]c(-c3ccncc3OC)c2Nc2ccccc2)C1 [Example 104, Methyl 2-(3-methoxypyridin-4-yl)-4-oxo-3-(phenylamino)-1,4,5,7-tetrahydro-6H-pyrrolo[2,3-c]pyridine-6-carboxylate] — 5.7-fold lower, 0.009 µM
- CS(=O)(=O)N1CC(=O)c2c([nH]c(-c3ccncc3OCC(F)(F)F)c2Nc2ccccc2)C1 [Example 233, 6-(Methylsulfonyl)-3-(phenylamino)-2-[3-(2,2,2-trifluoroethoxy)pyridin-4-yl]-1,5,6,7-tetrahydro-4H-pyrrolo[2,3-c]pyridin-4-one] — within 1.5-fold, 0.036 µM
- COCCOc1cnccc1-c1[nH]c2c(c1Nc1ccccc1)C(=O)CN(C(=O)OC)C2 [Example 248, Methyl 2-[3-(2-methoxyethoxy)pyridin-4-yl]-4-oxo-3-(phenylamino)-1,4,5,7-tetrahydro-6H-pyrrolo[2,3-c]pyridine-6-carboxylate] — 10-fold lower, 0.005 µM
- COC(=O)N1CC(=O)c2c([nH]c(-c3ccnc(NC(C)=O)c3)c2Nc2ccc(C)cc2)C1 [Example 321, Methyl 2-[2-(acetylamino)pyridin-4-yl]-3-[(4-methylphenyl)amino]-4-oxo-1,4,5,7-tetrahydro-6H-pyrrolo[2,3-c]pyridine-6-carboxylate] — 2.2-fold higher, 0.113 µM
- CC(=O)Nc1cc(-c2[nH]c3c(c2Nc2ccccc2)C(=O)CN(C(=O)c2ccccn2)C3)ccn1 [Example 114, N-{4-[4-Oxo-3-(phenylamino)-6-(pyridin-2-ylcarbonyl)-4,5,6,7-tetrahydro-1H-pyrrolo[2,3-c]pyridin-2-yl]pyridin-2-yl}acetamide] — within 1.5-fold, 0.063 µM
- CNC(=O)N1CC(=O)c2c([nH]c(-c3ccnc(NC(=O)[C@@H]4C[C@@H]4F)c3)c2Nc2ccccc2)C1 [Example 206, 2-[2-([(1S,2S)-2-Fluorocyclopropyl]carbonylamino)pyridin-4-yl]-N-methyl-4-oxo-3-(phenylamino)-1,4,5,7-tetrahydro-6H-pyrrolo[2,3-c]pyridine-6-carboxamide] — 13-fold lower, 0.004 µM
- CCC(=O)N1CC(=O)c2c([nH]c(-c3ccncc3)c2Nc2ccccc2)C1 [Example 8, 3-(phenylamino)-6-propanoyl-2-(pyridin-4-yl)-1,5,6,7-tetrahydro-4H-pyrrolo[2,3-c]pyridin-4-one] — 13-fold lower, 0.004 µM
- Cc1nccc(-c2[nH]c3c(c2Nc2ccccc2)C(=O)CN(C(=O)OC(C)(C)C)C3)n1 [Example 12, tert-Butyl 2-(2-methylpyrimidin-4-yl)-4-oxo-3-(phenylamino)-1,4,5,7-tetrahydro-6H-pyrrolo[2,3-c]pyridine-6-carboxylate] — 2-fold higher, 0.102 µM
- CN(C)CCOc1cnccc1-c1[nH]c2c(c1Nc1ccccc1)C(=O)CNC2 [Example 277, 2-3-[2-(Dimethylamino)ethoxy]pyridin-4-yl-3-(phenylamino)-1,5,6,7-tetrahydro-4H-pyrrolo[2,3-c]pyridin-4-one] — 2-fold higher, 0.102 µM
- COCCOCCNC(=O)N1CC(=O)c2c([nH]c(-c3ccncc3)c2Nc2ccccc2)C1 [Example 90, N-[2-(2-Methoxyethoxy)ethyl]-4-oxo-3-(phenylamino)-2-(pyridin-4-yl)-1,4,5,7-tetrahydro-6H-pyrrolo[2,3-c]pyridine-6-carboxamide] — 2.4-fold lower, 0.021 µM
